Patent EP0474580B1, “Use of 1-[3-(dimethylamino)propyl]-1-phenylphthalenes for the treatment of cerebrovascular disorders” (priority 1990, dated 1992)
Marks after values point to notes of the source that are not given here.

Legend:
KCN-induced coma = KCN-induced coma in mice; format: in vivo, mice (Crj:ICR); details: for coma time: vs vehicle
Experimental: Male mice (Crj:ICR) weighing 20-30 g were used. The mice were fasted for one day. The drugs, dissolved in saline, were injected intraperitoneally. 30 min after the injection, KCN, dissolved in saline, was injected intravenously at a dose of 1.3 mg/kg. The duration of disappearance of righting reflex was measured as coma time.

[1] = tested on: passive avoidance in ischemic gerbils; assay: Step-down passive avoidance in ischemic gerbils; format: in vivo; details: for Step-down latency [log(s)] Mean: ischemic gerbils, testing phase (max. 60 s); for latency of ischemic gerbils (testing phase): vs ischemic control
Experimental: The test employed was step-down passive avoidance in gerbils treated with test compounds prior to occlusion of carotid arteries followed by acquisition trial (training phase).
Test compounds were administered intraperitoneally to gerbils 30 min prior to carotid occlusion or ketamine was administered intraperitoneally 10 min prior to carotid occlusion. The gerbils were anesthetized with 2% halothane contained in a mixture of 70% nitrogen and 30% oxygen. The right and left common carotid arteries were occluded for 5 min. The gerbils were trained for 5 min in a step-down type passive avoidance chamber (16x16x20 cm) two days after induced ischemia. Each gerbil was placed on a safety platform (6x16x20 cm) in the chamber and received a series of mild foot shocks (0.1 mA for 3 s every 6 s), when the gerbil stepped down to a floor made of metal rods. Gerbils were returned to the safety platform for testing 24 h later and their step-down latencies to the grid floor were recorded (max. 60 s). RESULTS

[2] = tested on: carbon dioxide-induced amnesia; assay: Carbon dioxide-induced amnesia in rats (one-trial passive avoidance test); format: in vivo, Sprague-Dawley (CD) rats; details: for group mean 'step-through' times: oral
Text: The test employed was a one-trial passive avoidance test in rats, using carbon dioxide asphyxiation to induce amnesia. Female Sprague-Dawley (CD) rats (A. Tick & Son Ltd.) in the body weight range 160-180g were used for the study. The one-trial passive avoidance apparatus consisted of a 32 x 32 x 32 cm chamber with opaque walls and a metal grid floor. A 6 cm wide , 25 cm long runway protruded from the front wall of the chamber. The runway was illuminated while the chamber was dark. When placed on the runway, a rat could enter the chamber through a 6 x 6 cm opening. A scrambled footshock could be delivered through the metal grid floor of the chamber. On the first day of the experiment, the rats received three pre-treatment training trials, during which each animal was placed on the end of the runway and the time taken to enter the chamber (the 'step-through' latency) was determined. On the second day of the experiment, groups of 10 animals were treated p.o. with test compound dissolved in saline or with saline. One hour after administration, an acquisition trial was performed. This was similar to a training trial, except that the rats received a footshock of 1.0 mA for 10 s commencing 10 s after entering the chamber. Immediately after the application of the footshock the animals were subjected to amnesic treatment. Amnesic treatment consisted of placing the rats in a box filled with carbon dioxide until respiratory arrest occurred; the rats were then revived by artificial respiration. 24 Hours after the acquisition trial, a single retrieval trial was given to each rat and the time taken to enter the chamber ('step-through' latency) was recorded for each animal.

[3] = tested on: ischemia-induced death in bilateral carotid arterial ligation (BCAL); assay: Brain ischemia-induced death in mice (bilateral carotid arterial ligation); format: in vivo, ICR MICE
Experimental: Male ICR MICE (Charles River) weighing 30 - 40 g were used after they were fasted for 1 day.
[…] Surviving mice were observed over 4 h.

[4] = tested on: ischemia induced hippocampal neuronal damage; assay: Ischemia-induced hippocampal death in gerbils; format: in vivo, Mongolian gerbils; details: for Survival neurons/mm mean: counted along CA1 after seven days; for protective effect against neuronal lesions: vs vehicle
Experimental: Test compounds were administered intraperitoneally to Male Mongolian gerbils 30 min before carotid occlusion. Carotid occlusion time was 5 min . Seven days after recovery, the animals were killed, brains removed, sectioned and surviving neurons were counted along CA1 in the hippocampus.

[5] = Toxicity study, oral administration in rats; format: in vivo; details: 350 mg/kg orally, male and female SD rats, observed for one week
Text: In toxicity studies male and female SD rats ranging in weight from 170 g to 200 g were used one day after fasting.

[6] = tested on: depression associated with Alzheimer's disease; details: C.G. Gottfries, Psychopharmacology, 1988; cited from earlier work
[7] = tested on: vascular dementia (VD, incl. MID); details: patients with vascular dementia (VD, incl. MID); Nyth et al. 1989; cited from earlier work
[8] = tested on: moderate dementia of Alzheimer's type (AD/SDAT) or multi-infarct dementia (MID); details: patients with moderate AD/SDAT or MID; Nyth et al. 1988/1990; cited from earlier work

SMILES: C1=Cc2cccc(OCC3CNCCO3)c2C1 (stereo not drawn) [Indeloxazine, reference compound]
- Coma time (s) Mean (KCN-induced coma; 20 mg/kg i.p. 30 min before KCN 1.3 mg/kg i.v.): 13.8 s
- coma time (KCN-induced coma; 20 mg/kg): significantly reduced the coma time
- Step-down latency [log(s)] Mean ([1]; 40 mg/kg i.p. 30 min prior to carotid occlusion): 1.085 log(s)
- latency of ischemic gerbils (testing phase) ([1]; 40 mg/kg): not significantly different

SMILES: NC(=O)CN1CCCC1=O [Piracetam, reference compound]
- Latency (s) ([2]; 300 mg/kg p.o. one hour before acquisition trial, CO2 treatment +, retrieval trial 24 h later (max. 180 s)): 108.8*** s
- time of entry ('step-through' latency) compared with vehicle ([2]; oral doses of 40 or 1000 mg/kg, indicates no marked muscle incoordination or CNS effects): no significant differences
- 'step-through' latencies ([2]; piracetam treatment, dose not given): statistically significantly longer

SMILES: CC(C(O)c1ccc(O)cc1)N1CCC(Cc2ccccc2)CC1 (stereo not drawn) [Ifenprodil]
- Survival rate (%) 2 h after BCAL ([3]; 30 mg/kg,p.o., 30 min prior to ligation, 2 h after BCAL): 47** %
- Survival rate (%) 4 h after BCAL ([3]; 30 mg/kg,p.o., 30 min prior to ligation, 4 h after BCAL): 20%
- ischemia-induced death / survival rate 2 h after ligation ([3]; 30 mg/kg, 2 h after bilateral carotid arterial ligation, vs saline): significantly increased survival rate
- ischemia-induced death / survival rate 4 h after ligation ([3]; 30 mg/kg, 4 h after bilateral carotid arterial ligation, vs saline): did not significantly increase survival rate

SMILES: CN(C)CCCC1(c2ccc(F)cc2)OCc2cc(C#N)ccc21 (stereo not drawn) [Citalopram, citalopram]
- Survival neurons/mm mean ([4]; 20 mg/kg i.p. 30 min before 5 min carotid occlusion): 38.0 neurons/mm
- protective effect against neuronal lesions ([4]; 20 mg/kg): weak but non-significant protective effect
- Survival neurons/mm mean ([4]; 40 mg/kg i.p. 30 min before 5 min carotid occlusion): 95.8 neurons/mm
- protective effect against neuronal lesions ([4]; 40 mg/kg): significant (p < 0.05 ) protective effect
- Coma time (s) Mean (KCN-induced coma; 1.25 mg/kg i.p. 30 min before KCN 1.3 mg/kg i.v.): 38.5 s
- Coma time (s) Mean (KCN-induced coma; 2.5 mg/kg i.p. 30 min before KCN 1.3 mg/kg i.v.): 33.2 s
- Coma time (s) Mean (KCN-induced coma; 5 mg/kg i.p. 30 min before KCN 1.3 mg/kg i.v.): 35.0 s
- Coma time (s) Mean (KCN-induced coma; 10 mg/kg i.p. 30 min before KCN 1.3 mg/kg i.v.): 27.4 s
- coma time (KCN-induced coma; 10 mg/kg intraperitoneal): significantly reduced coma time
- deaths [5]: no deaths were observed
- effect against depression associated with Alzheimer's disease [6]: effective
- Step-down latency [log(s)] Mean ([1]; 20 mg/kg i.p. 30 min prior to carotid occlusion): 1.386 log(s)
- latency of ischemic gerbils (testing phase) ([1]; 20 mg/kg): significantly increased the latency
- emotional disturbances [7]: no significant improvement
- effect on intellectual functions [8]: did not appear to have effect
- emotional lability, motivation, confusion, fear-panic, irritation, reduced mood and restlessness [8]: significant improvements
- Latency ([2]; 5 mg/kg p.o. one hour before acquisition trial, CO2 treatment +, retrieval trial 24 h later (max. 180 s)): 31.2 s
- Latency (s) ([2]; 10 mg/kg p.o. one hour before acquisition trial, CO2 treatment +, retrieval trial 24 h later (max. 180 s)): 77.2** s
- Latency (s) ([2]; 20 mg/kg p.o. one hour before acquisition trial, CO2 treatment +, retrieval trial 24 h later (max. 180 s)): 114.3*** s
- group mean 'step-through' times ([2]; 2 highest doses tested (i.e. 20 and 40 mg/kg)): marked and highly significant increase
- group mean 'step-through' times ([2]; all doses tested, vs saline-treated control group): dose-related increases

SMILES: CNC1(c2ccccc2Cl)CCCCC1=O (stereo not drawn) [Ketamine, reference compound]
- Survival neurons/mm mean ([4]; 100 mg/kg i.p. before 5 min carotid occlusion): 174.5 neurons/mm
- protective effect against neuronal lesions ([4]; 100 mg/kg): significant (p < 0.01) protective effect
- Step-down latency [log(s)] Mean ([1]; 120 mg/kg i.p. 10 min prior to carotid occlusion): 1.348 log(s)
- latency of ischemic gerbils (testing phase) ([1]; 120 mg/kg): significantly increased the latency
